# In patent US20240299359A1, “PHARMACEUTICAL COMPOSITION FOR ANIMALS CONTAINING 5-HYDROXY-METHYLIMIDAZOLIDINE-2,4-DIONE COMPOUND AS ACTIVE INGREDIENT” (KYONGBO PHARM. CO., LTD., priority 2021, published 2024):
# Assay: 13-week repeated oral toxicity: weight measurement
# Format: in vivo, beagle
# Conditions: for Weight: in kg (unit assumed)
# Protocol: During the 13-week test period starting from the day before administration, the weight was measured a total of 15 times before administration (pre), before administration on the day of administration, and every week over the 13-week test period after the first administration at a predetermined time (remaining feed measurement time) before administration of the test substance (on every Tuesday during the test period).
smiles,measurement,setting,value
"CN1C(=O)NC(=O)C1O (stereo not shown) [KBP-001, 5-hydroxy-1-methylimidazolidine-2,4-dione]","Weight, Mean","500 mg/kg repeated oral (G3), female, week 4, mean",9.8 kg
same,"Weight, Mean","500 mg/kg repeated oral (G3), female, week 5, mean",9.8 kg
same,"Weight, Mean","500 mg/kg repeated oral (G3), female, week 6, mean",9.8 kg
same,"Weight, Mean","500 mg/kg repeated oral (G3), female, week 7, mean",9.8 kg
same,"Weight, Mean","500 mg/kg repeated oral (G3), female, week 8, mean",9.8 kg
same,"Weight, Mean","500 mg/kg repeated oral (G3), female, week 9, mean",9.8 kg
same,"Weight, Mean","500 mg/kg repeated oral (G3), female, week 10, mean",9.8 kg
same,"Weight, Mean","500 mg/kg repeated oral (G3), female, week 11, mean",9.9 kg
same,"Weight, Mean","500 mg/kg repeated oral (G3), female, week 12, mean",9.9 kg
same,"Weight, Mean","500 mg/kg repeated oral (G3), female, week 13, mean",10 kg
same,"Weight, Mean","500 mg/kg repeated oral (G3), female, week pre, mean",9.5 kg
same,Weight,"500 mg/kg repeated oral (G3), male, week 0, individual animals",10.0
same,"Weight, Mean","500 mg/kg repeated oral (G3), male, week 0, mean",9.9 kg
same,"Weight, Mean","500 mg/kg repeated oral (G3), male, week 1, mean",10 kg
same,"Weight, Mean","500 mg/kg repeated oral (G3), male, week 2, mean",9.9 kg
same,"Weight, Mean","500 mg/kg repeated oral (G3), male, week 3, mean",9.9 kg
same,"Weight, Mean","500 mg/kg repeated oral (G3), male, week 4, mean",10 kg
same,"Weight, Mean","500 mg/kg repeated oral (G3), male, week 5, mean",10.1 kg
same,Weight,"500 mg/kg repeated oral (G3), male, week 6, individual animals",10.1
same,"Weight, Mean","500 mg/kg repeated oral (G3), male, week 6, mean",10.1 kg
same,Weight,"500 mg/kg repeated oral (G3), male, week 7, individual animals",10.1
same,"Weight, Mean","500 mg/kg repeated oral (G3), male, week 7, mean",10.1 kg
same,Weight,"500 mg/kg repeated oral (G3), male, week 8, individual animals",10.3
same,"Weight, Mean","500 mg/kg repeated oral (G3), male, week 8, mean",10.1 kg
same,Weight,"500 mg/kg repeated oral (G3), male, week 9, individual animals",10.4
same,"Weight, Mean","500 mg/kg repeated oral (G3), male, week 9, mean",10.1 kg
same,Weight,"500 mg/kg repeated oral (G3), male, week 10, individual animals",10.4
same,"Weight, Mean","500 mg/kg repeated oral (G3), male, week 10, mean",10.2 kg
same,Weight,"500 mg/kg repeated oral (G3), male, week 11, individual animals",10.4
same,"Weight, Mean","500 mg/kg repeated oral (G3), male, week 11, mean",10.1 kg
same,Weight,"500 mg/kg repeated oral (G3), male, week 12, individual animals",10.3
same,"Weight, Mean","500 mg/kg repeated oral (G3), male, week 12, mean",10.2 kg
same,Weight,"500 mg/kg repeated oral (G3), male, week 13, individual animals",10.5
same,"Weight, Mean","500 mg/kg repeated oral (G3), male, week 13, mean",10.3 kg
same,Weight,"500 mg/kg repeated oral (G3), male, week pre, individual animals",10.1
same,"Weight, Mean","500 mg/kg repeated oral (G3), male, week pre, mean",10 kg
same,"Weight, Mean","1,000 mg/kg repeated oral (G4), female, week 0, mean",9.4 kg
same,"Weight, Mean","1,000 mg/kg repeated oral (G4), female, week 1, mean",9.4 kg
same,"Weight, Mean","1,000 mg/kg repeated oral (G4), female, week 2, mean",9.3 kg
same,"Weight, Mean","1,000 mg/kg repeated oral (G4), female, week 3, mean",9.4 kg
same,"Weight, Mean","1,000 mg/kg repeated oral (G4), female, week 4, mean",9.6 kg
same,"Weight, Mean","1,000 mg/kg repeated oral (G4), female, week 5, mean",9.5 kg
same,"Weight, Mean","1,000 mg/kg repeated oral (G4), female, week 6, mean",9.4 kg
same,"Weight, Mean","1,000 mg/kg repeated oral (G4), female, week 7, mean",9.4 kg
same,"Weight, Mean","1,000 mg/kg repeated oral (G4), female, week 8, mean",9.5 kg
same,"Weight, Mean","1,000 mg/kg repeated oral (G4), female, week 9, mean",9.7 kg
same,"Weight, Mean","1,000 mg/kg repeated oral (G4), female, week 10, mean",0.8 kg
same,"Weight, Mean","1,000 mg/kg repeated oral (G4), female, week 11, mean",9.8 kg
same,"Weight, Mean","1,000 mg/kg repeated oral (G4), female, week 12, mean",9.8 kg
same,"Weight, Mean","1,000 mg/kg repeated oral (G4), female, week 13, mean",9.8 kg
same,"Weight, Mean","1,000 mg/kg repeated oral (G4), female, week pre, mean",9.4 kg
same,"Weight, Mean","1,000 mg/kg repeated oral (G4), male, week 0, mean",10.2 kg
same,"Weight, Mean","1,000 mg/kg repeated oral (G4), male, week 1, mean",10.2 kg
same,"Weight, Mean","1,000 mg/kg repeated oral (G4), male, week 2, mean",10.1 kg
same,"Weight, Mean","1,000 mg/kg repeated oral (G4), male, week 3, mean",10 kg
same,"Weight, Mean","1,000 mg/kg repeated oral (G4), male, week 4, mean",10.2 kg
same,"Weight, Mean","1,000 mg/kg repeated oral (G4), male, week 5, mean",10.3 kg
same,"Weight, Mean","1,000 mg/kg repeated oral (G4), male, week 6, mean",10 kg
same,"Weight, Mean","1,000 mg/kg repeated oral (G4), male, week 7, mean",10.1 kg
same,"Weight, Mean","1,000 mg/kg repeated oral (G4), male, week 8, mean",10.1 kg
same,"Weight, Mean","1,000 mg/kg repeated oral (G4), male, week 9, mean",10.2 kg
same,"Weight, Mean","1,000 mg/kg repeated oral (G4), male, week 10, mean",10.2 kg
same,"Weight, Mean","1,000 mg/kg repeated oral (G4), male, week 11, mean",10.2 kg
same,"Weight, Mean","1,000 mg/kg repeated oral (G4), male, week 12, mean",10.2 kg
same,"Weight, Mean","1,000 mg/kg repeated oral (G4), male, week 13, mean",10.2 kg
same,"Weight, Mean","1,000 mg/kg repeated oral (G4), male, week pre, mean",10.2 kg
same,weight compared with control group,"repeated oral once a day for 13 weeks, male and female",no significant differences in weight from the control group was observed
